Test results as given in ChEMBL document CHEMBL5625170, “Design, synthesis, and biological evaluation of novel penindolone derivatives as potential inhibitors of hemagglutinin-mediated membrane fusion” (Eur J Med Chem, 2023).

Assays:
[1] = Cytotoxicity against dog MDCK cells assessed as cell viability measured after 48 hrs by MTT assay; type: toxicity, cell-based, Canis lupus familiaris
[2] = Selectivity index, ratio of CC50 for cytotoxicity against dog MDCK cells to IC50 for anti-viral activity against Influenza A virus (A/Puerto Rico/8/34 infected in MDCK cells; type: toxicity, cell-based; settings: read-out: Selectivity Index

SMILES	CC50 at 48 h [1]	selectivity ratio [2]
CC(=O)c1cc(C)c(O)c(Cc2c(Cc3c(O)c(C)cc(C(C)=O)c3O)n(N)c3ccccc23)c1O	> 300 µM	
CC(=O)c1cc(C)c(O)c(Cc2[nH]c3ccc(Cl)cc3c2Cc2c(O)c(C)cc(C(C)=O)c2O)c1O	> 300 µM	
COc1ccc(-c2ccc3[nH]c(Cc4c(O)c(C)cc(C(C)=O)c4O)c(Cc4c(O)c(C)cc(C(C)=O)c4O)c3c2)cc1OC	> 300 µM	> 16.6
CC(=O)c1cc(C)c(O)c(Cc2[nH]c3cc(-c4cc(C(C)(C)C)cc(C(C)(C)C)c4)ccc3c2Cc2c(O)c(C)cc(C(C)=O)c2O)c1O	280 µM	10.4
CC(=O)c1cc(C)c(O)c(Cc2[nH]c3ccc(F)cc3c2Cc2c(O)c(C)cc(C(C)=O)c2O)c1O	281 µM	
CC(=O)c1cc(C)c(O)c(Cc2[nH]c3ccc(C)cc3c2Cc2c(O)c(C)cc(C(C)=O)c2O)c1O	> 300 µM	> 14.6
CC(=O)c1cc(C)c(O)c(Cc2[nH]c3ccc(/C=C/c4ccccc4)cc3c2Cc2c(O)c(C)cc(C(C)=O)c2O)c1O	> 300 µM	
CC(=O)c1cc(C)c(O)c(Cc2[nH]c3cc(-c4ccccc4F)ccc3c2Cc2c(O)c(C)cc(C(C)=O)c2O)c1O	> 300 µM	
CC(=O)c1cc(C)c(O)c(Cc2[nH]c3cc(-c4ccc(F)cc4)ccc3c2Cc2c(O)c(C)cc(C(C)=O)c2O)c1O	256 µM	13.4
CC(=O)c1cc(C)c(O)c(Cc2[nH]c3cc(-c4cc(C(F)(F)F)cc(C(F)(F)F)c4)ccc3c2Cc2c(O)c(C)cc(C(C)=O)c2O)c1O	> 300 µM	
CC(=O)c1cc(C)c(O)c(Cc2[nH]c3ccc(-c4ccc5c(c4)CCO5)cc3c2Cc2c(O)c(C)cc(C(C)=O)c2O)c1O	> 300 µM	
COc1ccc2cc(-c3ccc4[nH]c(Cc5c(O)c(C)cc(C(C)=O)c5O)c(Cc5c(O)c(C)cc(C(C)=O)c5O)c4c3)ccc2c1	> 300 µM	> 14.2
COc1ccc(-c2ccc3c(Cc4c(O)c(C)cc(C(C)=O)c4O)c(Cc4c(O)c(C)cc(C(C)=O)c4O)[nH]c3c2)cc1OC	240 µM	12.2
CC(=O)c1cc(C)c(O)c(Cc2[nH]c3cc(-c4ccccc4)ccc3c2Cc2c(O)c(C)cc(C(C)=O)c2O)c1O	> 300 µM	> 12.8
CC(=O)c1cc(C)c(O)c(Cc2[nH]c3ccc(-c4ccc5c(c4)OCCO5)cc3c2Cc2c(O)c(C)cc(C(C)=O)c2O)c1O	> 300 µM	> 23.1
CC(=O)c1cc(C)c(O)c(Cc2[nH]c3ccc(-c4cccc(F)c4)cc3c2Cc2c(O)c(C)cc(C(C)=O)c2O)c1O	> 300 µM	
CC(=O)c1cc(C)c(O)c(Cc2c(Cc3c(O)c(C)cc(C(C)=O)c3O)n(Cc3ccc(Cl)cc3)c3ccccc23)c1O	> 300 µM	
C=CCn1c(Cc2c(O)c(C)cc(C(C)=O)c2O)c(Cc2c(O)c(C)cc(C(C)=O)c2O)c2ccccc21	> 300 µM	
CC(=O)c1cc(C)c(O)c(Cc2[nH]c3cc(-c4c5ccccc5cc5ccccc45)ccc3c2Cc2c(O)c(C)cc(C(C)=O)c2O)c1O	> 300 µM	> 36.1
CC(=O)c1cc(C)c(O)c(Cc2[nH]c3ccc(Br)cc3c2Cc2c(O)c(C)cc(C(C)=O)c2O)c1O	233 µM	9.2
CC(=O)c1cc(C)c(O)c(Cc2[nH]c3ccc(-c4ccccc4F)cc3c2Cc2c(O)c(C)cc(C(C)=O)c2O)c1O	> 300 µM	

SMILES	CC50 at 48 h [1]	selectivity ratio [2]
CC(=O)c1cc(C)c(O)c(Cc2[nH]c3ccc(-c4ccc(F)cc4)cc3c2Cc2c(O)c(C)cc(C(C)=O)c2O)c1O	212 µM	
CC(=O)c1cc(C)c(O)c(Cc2[nH]c3cc(/C=C/c4ccccc4)ccc3c2Cc2c(O)c(C)cc(C(C)=O)c2O)c1O	> 300 µM	
CC(=O)c1cc(C)c(O)c(Cc2[nH]c3ccc(-c4c5ccccc5c(-c5ccccc5)c5ccccc45)cc3c2Cc2c(O)c(C)cc(C(C)=O)c2O)c1O	> 300 µM	
CC(=O)c1cc(C)c(O)c(Cc2[nH]c3ccc(-c4ccc(C)cc4)cc3c2Cc2c(O)c(C)cc(C(C)=O)c2O)c1O	> 300 µM	> 19.4
COc1cccc(OC)c1-c1ccc2[nH]c(Cc3c(O)c(C)cc(C(C)=O)c3O)c(Cc3c(O)c(C)cc(C(C)=O)c3O)c2c1	271 µM	12.9
CC(=O)c1cc(C)c(O)c(Cc2[nH]c3ccc(-c4ccsc4)cc3c2Cc2c(O)c(C)cc(C(C)=O)c2O)c1O	> 300 µM	
CC(=O)c1cc(C)c(O)c(Cc2[nH]c3ccc(-c4cc(C(C)(C)C)cc(C(C)(C)C)c4)cc3c2Cc2c(O)c(C)cc(C(C)=O)c2O)c1O	> 300 µM	
CC(=O)c1cc(C)c(O)c(Cc2[nH]c3ccc(-c4ccccc4)cc3c2Cc2c(O)c(C)cc(C(C)=O)c2O)c1O	> 300 µM	> 11.5
CC(=O)c1cc(C)c(O)c(Cc2[nH]c3cc(-c4cccc(O)c4)ccc3c2Cc2c(O)c(C)cc(C(C)=O)c2O)c1O	126 µM	
CC(=O)c1cc(C)c(O)c(Cc2[nH]c3ccc(-c4csc5ccccc45)cc3c2Cc2c(O)c(C)cc(C(C)=O)c2O)c1O	> 300 µM	> 12.8
CC(=O)c1cc(C)c(O)c(Cc2[nH]c3ccc(-c4cc(C(F)(F)F)cc(C(F)(F)F)c4)cc3c2Cc2c(O)c(C)cc(C(C)=O)c2O)c1O	> 300 µM	
COc1cc(-c2ccc3[nH]c(Cc4c(O)c(C)cc(C(C)=O)c4O)c(Cc4c(O)c(C)cc(C(C)=O)c4O)c3c2)cc(OC)c1OC	> 300 µM	> 37.5
CSc1ccc(-c2ccc3c(Cc4c(O)c(C)cc(C(C)=O)c4O)c(Cc4c(O)c(C)cc(C(C)=O)c4O)[nH]c3c2)cc1	> 300 µM	> 33
CC(=O)c1cc(C)c(O)c(Cc2[nH]c3cc(-c4ccc5ccccc5c4)ccc3c2Cc2c(O)c(C)cc(C(C)=O)c2O)c1O	> 300 µM	> 11.5
COc1ccc(-c2ccc3[nH]c(Cc4c(O)c(C)cc(C(C)=O)c4O)c(Cc4c(O)c(C)cc(C(C)=O)c4O)c3c2)cc1	> 300 µM	> 18.4
CC(=O)c1cc(C)c(O)c(Cc2[nH]c3ccc(-c4cc(C)cc(C)c4)cc3c2Cc2c(O)c(C)cc(C(C)=O)c2O)c1O	> 300 µM	> 22.2
CC(=O)c1cc(C)c(O)c(Cc2c(Cc3c(O)c(C)cc(C(C)=O)c3O)n(Cc3ccc(F)cc3)c3ccccc23)c1O	> 300 µM	
CC(=O)c1cc(C)c(O)c(Cc2[nH]c3ccc(-c4ccc(C(F)(F)F)cc4)cc3c2Cc2c(O)c(C)cc(C(C)=O)c2O)c1O	> 300 µM	> 13.7
CC(=O)c1cc(C)c(O)c(Cc2[nH]c3ccc(-c4ccc5ccccc5c4)cc3c2Cc2c(O)c(C)cc(C(C)=O)c2O)c1O	> 300 µM	> 14.5
CC(=O)c1cc(C)c(O)c(Cc2[nH]c3cc(-c4ccc5c(c4)CCO5)ccc3c2Cc2c(O)c(C)cc(C(C)=O)c2O)c1O	> 300 µM	
COc1cc(-c2ccc3c(Cc4c(O)c(C)cc(C(C)=O)c4O)c(Cc4c(O)c(C)cc(C(C)=O)c4O)[nH]c3c2)cc(OC)c1OC	> 300 µM	> 14.9

SMILES	CC50 at 48 h [1]	selectivity ratio [2]
CSc1ccc(-c2ccc3[nH]c(Cc4c(O)c(C)cc(C(C)=O)c4O)c(Cc4c(O)c(C)cc(C(C)=O)c4O)c3c2)cc1	> 300 µM	> 17.1
CC(=O)c1cc(C)c(O)c(Cc2c(Cc3c(O)c(C)cc(C(C)=O)c3O)n(Cc3ccccc3)c3ccccc23)c1O	> 300 µM	
CC(=O)c1cc(C)c(O)c(Cc2[nH]c3cc(C)ccc3c2Cc2c(O)c(C)cc(C(C)=O)c2O)c1O	> 300 µM	> 19.9
CC(=O)c1cc(C)c(O)c(Cc2[nH]c3cc(-c4cccc(F)c4)ccc3c2Cc2c(O)c(C)cc(C(C)=O)c2O)c1O	> 300 µM	
COc1ccc(-c2ccc3c(Cc4c(O)c(C)cc(C(C)=O)c4O)c(Cc4c(O)c(C)cc(C(C)=O)c4O)[nH]c3c2)cc1	> 300 µM	> 34.5
CC(=O)c1cc(C)c(O)c(Cc2[nH]c3cc(-c4csc5ccccc45)ccc3c2Cc2c(O)c(C)cc(C(C)=O)c2O)c1O	> 300 µM	> 14.4
CC(=O)c1cc(C)c(O)c(Cc2[nH]c3cc(-c4c5ccccc5c(-c5ccccc5)c5ccccc45)ccc3c2Cc2c(O)c(C)cc(C(C)=O)c2O)c1O	> 300 µM	
CC(=O)c1cc(C)c(O)c(Cc2[nH]c3cc(-c4ccc(C)cc4)ccc3c2Cc2c(O)c(C)cc(C(C)=O)c2O)c1O	> 300 µM	> 12.4
CC(=O)c1cc(C)c(O)c(Cc2[nH]c3cc(-c4ccsc4)ccc3c2Cc2c(O)c(C)cc(C(C)=O)c2O)c1O	> 300 µM	
CC(=O)c1cc(C)c(O)c(Cc2[nH]c3ccc(-c4ccc(Cl)cc4)cc3c2Cc2c(O)c(C)cc(C(C)=O)c2O)c1O	> 300 µM	> 11.1
CC(=O)c1cc(C)c(O)c(Cc2[nH]c3ccc(-c4ccc5ncccc5c4)cc3c2Cc2c(O)c(C)cc(C(C)=O)c2O)c1O	> 300 µM	> 16.2
COc1cccc(OC)c1-c1ccc2c(Cc3c(O)c(C)cc(C(C)=O)c3O)c(Cc3c(O)c(C)cc(C(C)=O)c3O)[nH]c2c1	> 300 µM	> 15.4
CC(=O)c1cc(C)c(O)c(Cc2[nH]c3cc(-c4ccc(C(F)(F)F)cc4)ccc3c2Cc2c(O)c(C)cc(C(C)=O)c2O)c1O	> 300 µM	> 12
CC(=O)c1cc(C)c(O)c(Cc2[nH]c3cc(-c4ccc5c(c4)OCCO5)ccc3c2Cc2c(O)c(C)cc(C(C)=O)c2O)c1O	> 300 µM	> 15.5
COc1ccc2cc(-c3ccc4c(Cc5c(O)c(C)cc(C(C)=O)c5O)c(Cc5c(O)c(C)cc(C(C)=O)c5O)[nH]c4c3)ccc2c1	> 300 µM	> 12.9
COc1ccc(Cn2c(Cc3c(O)c(C)cc(C(C)=O)c3O)c(Cc3c(O)c(C)cc(C(C)=O)c3O)c3ccccc32)cc1	> 300 µM	
CC(=O)c1cc(C)c(O)c(Cc2[nH]c3cc(-c4ccc(Cl)cc4)ccc3c2Cc2c(O)c(C)cc(C(C)=O)c2O)c1O	> 300 µM	
CC(=O)c1cc(C)c(O)c(Cc2[nH]c3cc(-c4ccc5cccnc5c4)ccc3c2Cc2c(O)c(C)cc(C(C)=O)c2O)c1O	> 300 µM	
CC(=O)c1cc(C)c(O)c(Cc2[nH]c3ccc(-c4cccc(O)c4)cc3c2Cc2c(O)c(C)cc(C(C)=O)c2O)c1O	152 µM	
